Values of other authors as cited in patent publication US20080044486A1, “Controlled Food Effect Composition” (priority 2003, published 2008).

Legend:
[1] = oral, conventional pharmaceutical composition

For CC(=O)Oc1ccccc1C(=O)O [Acetylsalicylic acid], the “Food effect in a conventional composition (references)” value (“Food effect” for short) [1] is listed as “Delayed absorption and reduced”.
In the case of COc1cc(C)c(/C=C/C(C)=C/C=C/C(C)=C/C(=O)O)c(C)c1C [Acitretin], the “Food effect” value [1] is given as “Increased absorption (2, 4)” and the LogP is given as 6.4.
In the case of CCCCc1oc2ccccc2c1C(=O)c1cc(I)c(OCCN(CC)CC)c(I)c1 [Amiodarone], the “Food effect” value [1] is listed as “Increased absorption (3)”.
In the case of CO[C@H]1O[C@@H]2O[C@@]3(C)CC[C@H]4[C@H](C)CC[C@@H]([C@H]1C)[C@@]24OO3 [Artemether], the “Food effect” value [1] is given as “High-fat food gives increased” and the LogP is given as 3.5.
For O=C1C(O)=C([C@H]2CC[C@H](c3ccc(Cl)cc3)CC2)C(=O)c2ccccc21 [Atovaquone], the “Food effect” value [1] is listed as “High-fat food gives increased” and the LogP is listed as 4.9.
For CC(C)/N=c1\cc2n(-c3ccc(Cl)cc3)c3ccccc3nc-2cc1Nc1ccc(Cl)cc1 [Clofazimine], the “Food effect” value [1] is listed as “Increased absorption (2, 4)”.
For C#C[C@]1(O)CC[C@H]2[C@@H]3CCC4=Cc5oncc5C[C@]4(C)[C@H]3CC[C@@]21C [Danazol], the LogP is given as 4.3.
In the case of CCOC(=O)/C=C(C)/C=C/C=C(C)/C=C/c1c(C)cc(OC)c(C)c1C [Etretinate], the LogP is given as 6.6.
For CCOC(=O)C1=C(C)NC(C)=C(C(=O)OC)C1c1cccc(Cl)c1Cl (stereo not shown) [Felodipine], the “Food effect” value [1] is given as “High-fat food gives increased”.
In the case of CC1=C(/C=C/C(C)=C/C=C/C(C)=C/C(=O)Nc2ccc(O)cc2)C(C)(C)CCC1 [Fenretinide], the “Food effect” value [1] is given as “High-fat food gives increased” and the LogP is given as 6.1.
For CC1=C(/C=C/C(C)=C/C=C/C(C)=C\C(=O)O)C(C)(C)CCC1 [Isotretinoin], the “Food effect” value [1] is given as “Increased absorption (7)”.
For CCC(C)n1ncn(-c2ccc(N3CCN(c4ccc(OCC5COC(Cn6cncn6)(c6ccc(Cl)cc6Cl)O5)cc4)CC3)cc2)c1=O (stereo not shown) [Itraconazole], the “Food effect” value [1] is listed as “Increased but delayed absorption” and the LogP is listed as 5.7.
For CCOC(=O)N1CCC(=C2c3ccc(Cl)cc3CCc3cccnc32)CC1 [Loratadine], the “Food effect” value [1] is given as “Increased but delayed absorption”.
In the case of CCCCN(CCCC)CC(O)c1cc(Cl)cc2c1-c1ccc(Cl)cc1/C2=C/c1ccc(Cl)cc1 (stereo not shown) [Lumefantrine], the “Food effect” value [1] is listed as “High-fat food gives increased” and the LogP is listed as 8.9.
For COC(=O)C1=C(C)NC(C)=C(C(=O)OCCN2CCN(C(c3ccccc3)c3ccccc3)CC2)C1c1cccc([N+](=O)[O-])c1 (stereo not shown) [Manidipine], the “Food effect” value [1] is given as “Increased absorption (2)” and the LogP is given as 4.1.
For Cc1c(-c2cnccn2)ssc1=S [Oltipraz], the “Food effect” value [1] is given as “Increased absorption (6)” and the LogP is given as 1.7.
In the case of O=C(c1ccc(OCCN2CCCCC2)cc1)c1c(-c2ccc(O)cc2)sc2cc(O)ccc12 [Raloxifene], the LogP is listed as 5.5.
For NC(=O)c1ncn([C@@H]2O[C@H](CO)[C@@H](O)[C@H]2O)n1 [Ribavirin], the “Food effect” value [1] is given as “High-fat food gives increased” and the LogP is given as −1.9.
For CC(C)c1nc(CN(C)C(=O)N[C@H](C(=O)N[C@@H](Cc2ccccc2)C[C@H](O)[C@H](Cc2ccccc2)NC(=O)OCc2cncs2)C(C)C)cs1 [Ritonavir], the “Food effect” value [1] is given as “Increased absorption (1, 4, 5)”.
For NC(=O)c1cn(Cc2c(F)cccc2F)nn1 [Rufinamide], the LogP is listed as 0.8.
For CC(C)(C)NC(=O)[C@@H]1C[C@@H]2CCCC[C@@H]2CN1C[C@@H](O)[C@H](Cc1ccccc1)NC(=O)[C@H](CC(N)=O)NC(=O)c1ccc2ccccc2n1 [Saquinavir], the LogP is listed as 3.8.
For CO[C@H]1C[C@@H]2CC[C@@H](C)[C@@](O)(O2)C(=O)C(=O)N2CCCC[C@H]2C(=O)O[C@H]([C@H](C)C[C@@H]2CC[C@@H](O)[C@H](OC)C2)CC(=O)[C@H](C)/C=C(\C)[C@@H](O)[C@@H](OC)C(=O)[C@H](C)C[C@H](C)/C=C/C=C/C=C/1C [Sirolimus], the “Food effect” value [1] is given as “High-fat food gives increased” and the LogP is given as 5.3.
In the case of CC(=O)S[C@@H]1CC2=CC(=O)CC[C@]2(C)[C@H]2CC[C@@]3(C)[C@@H](CC[C@@]34CCC(=O)O4)[C@H]12 [Spironolactone], the “Food effect” value [1] is given as “Increased absorption and reduced” and the LogP is given as 2.8.
For CC(C)OC(=O)OCOP(=O)(CO[C@H](C)Cn1cnc2c(N)ncnc21)OCOC(=O)OC(C)C [Tenofovir disoproxil], the “Food effect” value [1] is given as “High-fat food gives increased” and the LogP is given as 0.6.
For CCCC(CCC)C(=O)O [Valproic acid], the “Food effect” value [1] is listed as “Delayed absorption and reduced”.
